Assay results: ChEMBL document CHEMBL1125386, “Small atrial natriuretic peptide analogues: design, synthesis, and structural requirements for guanylate cyclase activation” (J Med Chem, 1992)

Tested on: Atrial natriuretic peptide receptor 1 (Oryctolagus cuniculus)
Assay: Binding affinity towards the low-affinity site atrionatriuretic peptide receptor 1 of rabbit adrenal membrane

| SMILES | KL [nM] |
| --- | --- |
| CC[C@H](C)[C@@H]1NC(=O)[C@@H](CCCN=C(N)N)NC(=O)CNC(=O)CNC(=O)[C@@H](Cc2cc(I)c(O)c(I)c2)NC(=O)[C@H](NC(=O)[C@H](N)CCCN=C(N)N)CSSC[C@H](C(N)=O)NC(=O)[C@@H](CCCN=C(N)N)NC(=O)[C@H](Cc2ccccc2)NC(=O)[C@@H]([C@@H](C)CC)NC(=O)[C@H](CCCN=C(N)N)NC(=O)[C@@H](CC(=O)O)NC1=O | 1700 |
| CC[C@H](C)[C@@H]1NC(=O)[C@@H](CCCN=C(N)N)NC(=O)CNC(=O)CNC(=O)[C@@H](Cc2ccccc2)NC(=O)CNC(=O)[C@H](NC(=O)[C@H](CO)NC(=O)[C@@H](N)CO)CSSC[C@H](C(=O)N2CCC[C@@H]2C(=O)N[C@H](CCCN=C(N)N)C(=O)O)NC(=O)[C@@H]([C@@H](C)CC)NC(=O)[C@H](CCCN=C(N)N)NC(=O)[C@@H](CC(=O)O)NC1=O | 440 |
| CC[C@H](C)[C@@H]1NC(=O)[C@@H](CCCN=C(N)N)NC(=O)CNC(=O)CNC(=O)[C@@H](Cc2ccccc2)NC(=O)C(C)NC(=O)[C@H](NC(=O)[C@@H](N)CCCN=C(N)N)CSSC[C@H](C(=O)N[C@H](Cc2ccccc2)C(=O)N[C@H](CCCN=C(N)N)C(=O)O)NC(=O)[C@@H]([C@@H](C)CC)NC(=O)[C@H](CCCN=C(N)N)NC(=O)[C@@H](CC(=O)O)NC1=O (stereo in doubt) | 240 |
| CC[C@H](C)[C@@H]1NC(=O)[C@@H](CCCN=C(N)N)NC(=O)CNC(=O)CNC(=O)[C@@H](Cc2ccccc2)NC(=O)CNC(=O)[C@H](NC(=O)[C@H](CO)NC(=O)[C@@H](N)CO)CSSC[C@H](C(=O)N[C@H](Cc2ccccc2)C(=O)N[C@H](CCCN=C(N)N)C(=O)O)NC(=O)[C@@H]([C@@H](C)CC)NC(=O)[C@H](CCCN=C(N)N)NC(=O)[C@@H](CC(=O)O)NC1=O | 410 |
| CC[C@H](C)[C@@H]1NC(=O)[C@@H](CCCN=C(N)N)NC(=O)CNC(=O)CNC(=O)[C@@H](Cc2ccccc2)NC(=O)C(C)NC(=O)[C@H](NC(=O)CCCCN)CSSC[C@H](C(=O)N[C@H](Cc2ccccc2)C(=O)N[C@H](CCCN=C(N)N)C(=O)O)NC(=O)[C@@H]([C@@H](C)CC)NC(=O)[C@H](CCCN=C(N)N)NC(=O)[C@@H](CC(=O)O)NC1=O (stereo in doubt) | 280 |
| CC[C@H](C)[C@@H]1NC(=O)[C@@H](CCCCN)NC(=O)CNC(=O)CNC(=O)[C@@H](C2CCCCC2)NC(=O)CCSSC[C@H](C(N)=O)NC(=O)[C@@H](CCCN=C(N)N)NC(=O)[C@H](Cc2ccccc2)NC(=O)[C@@H]([C@@H](C)CC)NC(=O)[C@H](CCCN=C(N)N)NC(=O)[C@@H](CC(=O)O)NC1=O | 150 |
| CC[C@H](C)[C@@H]1NC(=O)[C@@H](CCCN=C(N)N)NC(=O)CNC(=O)CNC(=O)[C@@H](Cc2ccccc2)NC(=O)C(C)NC(=O)[C@H](NC(=O)CCCCCCCN)CSSC[C@H](C(=O)N[C@H](Cc2ccccc2)C(=O)N[C@H](CCCN=C(N)N)C(=O)O)NC(=O)[C@@H]([C@@H](C)CC)NC(=O)[C@H](CCCN=C(N)N)NC(=O)[C@@H](CC(=O)O)NC1=O (stereo in doubt) | 790 |
| CC[C@H](C)[C@@H]1NC(=O)[C@@H](CCCN=C(N)N)NC(=O)CNC(=O)CNC(=O)[C@@H](Cc2ccccc2)NC(=O)C(C)NC(=O)[C@H](NC(=O)[C@@H](N)CCCCN)CSSC[C@H](C(=O)N[C@H](Cc2ccccc2)C(=O)N[C@H](CCCN=C(N)N)C(=O)O)NC(=O)[C@@H]([C@@H](C)CC)NC(=O)[C@H](CCCN=C(N)N)NC(=O)[C@@H](CC(=O)O)NC1=O (stereo in doubt) | 390 |
| CC[C@H](C)[C@@H]1NC(=O)[C@@H](CCCN=C(N)N)NC(=O)CNC(=O)CNC(=O)[C@@H](Cc2ccccc2)NC(=O)CCNC(=O)[C@H](NC(=O)[C@H](CO)NC(=O)[C@@H](N)CO)CSSC[C@H](C(=O)N[C@H](Cc2ccccc2)C(=O)N[C@H](CCCN=C(N)N)C(=O)O)NC(=O)[C@@H]([C@@H](C)CC)NC(=O)[C@H](CCCN=C(N)N)NC(=O)[C@@H](CC(=O)O)NC1=O | 6500 |
| CC[C@H](C)[C@@H]1NC(=O)[C@@H](CCCN=C(N)N)NC(=O)CNC(=O)CNC(=O)[C@@H](Cc2ccccc2)NC(=O)C(C)NC(=O)[C@H](N)CSSC[C@H](C(=O)N[C@H](Cc2ccccc2)C(=O)N[C@H](CCCN=C(N)N)C(=O)O)NC(=O)[C@@H]([C@@H](C)CC)NC(=O)[C@H](CCCN=C(N)N)NC(=O)[C@@H](CC(=O)O)NC1=O (stereo in doubt) | 2700 |
| CC[C@H](C)[C@@H]1NC(=O)[C@@H](CCCN=C(N)N)NC(=O)CNC(=O)CNC(=O)[C@H](Cc2ccccc2)NC(=O)[C@H](NC(=O)[C@H](CO)NC(=O)[C@@H](N)CO)CSSC[C@H](C(=O)N[C@H](Cc2ccccc2)C(=O)N[C@H](CCCN=C(N)N)C(=O)O)NC(=O)[C@@H]([C@@H](C)CC)NC(=O)[C@H](CCCN=C(N)N)NC(=O)[C@@H](CC(=O)O)NC1=O | 2000 |
| CC[C@H](C)[C@@H]1NC(=O)[C@@H](CCCN=C(N)N)NC(=O)C2CCC(CC2)NC(=O)C2CCC(CC2)NC(=O)[C@@H](Cc2ccccc2)NC(=O)C(C)NC(=O)[C@H](NC(=O)[C@H](CO)NC(=O)[C@@H](N)CO)CSSC[C@H](C(=O)N[C@H](Cc2ccccc2)C(=O)N[C@H](CCCN=C(N)N)C(=O)O)NC(=O)[C@@H]([C@@H](C)CC)NC(=O)[C@H](CCCN=C(N)N)NC(=O)[C@@H](CC(=O)O)NC1=O (stereo in doubt) | 1000 |
| CC[C@H](C)[C@@H]1NC(=O)[C@@H](CCCN=C(N)N)NC(=O)CNC(=O)CNC(=O)[C@@H](Cc2ccccc2)NC(=O)[C@@H](C)NC(=O)[C@H](NC(=O)[C@H](CO)NC(=O)[C@@H](N)CO)CSSC[C@H](C(=O)N[C@H](Cc2ccccc2)C(=O)N[C@H](CCCN=C(N)N)C(=O)O)NC(=O)[C@@H]([C@@H](C)CC)NC(=O)[C@H](C)NC(=O)[C@@H](CC(=O)O)NC1=O | 7100 |
| CC[C@H](C)[C@@H]1NC(=O)[C@@H](CCCN=C(N)N)NC(=O)CNC(=O)CNC(=O)[C@@H](Cc2ccccc2)NC(=O)C(C)NC(=O)[C@H](NC(=O)[C@H](CO)NC(=O)[C@@H](N)CO)CSSC[C@H](C(=O)N2CC(C(=O)N[C@H](CCCN=C(N)N)C(=O)O)Cc3ccccc32)NC(=O)[C@@H]([C@@H](C)CC)NC(=O)[C@H](CCCN=C(N)N)NC(=O)[C@@H](CC(=O)O)NC1=O (stereo in doubt) | 960 |
| CC[C@H](C)[C@@H]1NC(=O)[C@@H](CCCN=C(N)N)NC(=O)[C@H](CC(=O)O)NC(=O)[C@@H]([C@@H](C)CC)NC(=O)[C@H](CCCN=C(N)N)NC(=O)CNC(=O)CNC(=O)[C@H](Cc2ccccc2)NC(=O)CN(C)C(=O)[C@@H](NC(=O)[C@@H](CO)NC(=O)[C@H](N)CO)CSSC[C@@H](C(=O)N[C@H](Cc2ccccc2)C(=O)N[C@H](CCCN=C(N)N)C(=O)O)NC1=O | 410 |
| CC[C@H](C)[C@@H]1NC(=O)[C@H](CCCN=C(N)N)NC(=O)[C@@H](CC(=O)O)NC(=O)[C@H]([C@@H](C)CC)NC(=O)[C@H](CCCNC(N)=O)NC(=O)CNC(=O)CNC(=O)[C@@H](Cc2ccccc2)NC(=O)[C@@H](C)NC(=O)[C@@H](NC(=O)[C@H](CO)NC(=O)[C@@H](N)CO)CSSC[C@@H](C(=O)N[C@H](Cc2ccccc2)C(=O)N[C@H](CCCN=C(N)N)C(=O)O)NC1=O | 6900 |
| CC[C@H](C)[C@@H]1NC(=O)[C@@H](CCCN=C(N)N)NC(=O)CNC(=O)CNC(=O)[C@@H](Cc2ccccc2)NC(=O)[C@H](NC(=O)[C@H](CO)NC(=O)[C@@H](N)CO)CSSC[C@H](C(=O)N[C@H](Cc2ccccc2)C(=O)N[C@H](CCCN=C(N)N)C(=O)O)NC(=O)[C@@H]([C@@H](C)CC)NC(=O)[C@H](CCCN=C(N)N)NC(=O)[C@@H](CC(=O)O)NC1=O | 4400 |
| CC[C@H](C)[C@@H]1NC(=O)[C@@H](CCCN=C(N)N)NC(=O)CNC(=O)CNC(=O)[C@@H](C2CCCCC2)NC(=O)[C@H](NC(=O)[C@H](N)CCCN=C(N)N)CSSC[C@H](C(=O)O)NC(=O)[C@@H](CCCN=C(N)N)NC(=O)[C@H](Cc2ccccc2)NC(=O)[C@@H]([C@@H](C)CC)NC(=O)[C@H](CCCN=C(N)N)NC(=O)[C@@H](CC(=O)O)NC1=O | 460 |
| CC[C@H](C)[C@@H]1NC(=O)[C@@H](CCCN=C(N)N)NC(=O)CNC(=O)CNC(=O)[C@@H](Cc2ccccc2)NC(=O)[C@H](C2CCCCC2)NC(=O)[C@H](NC(=O)[C@H](CO)NC(=O)[C@@H](N)CO)CSSC[C@H](C(=O)N[C@H](Cc2ccccc2)C(=O)N[C@H](CCCN=C(N)N)C(=O)O)NC(=O)[C@@H]([C@@H](C)CC)NC(=O)[C@H](CCCN=C(N)N)NC(=O)[C@@H](CC(=O)O)NC1=O | 180 |
| CC[C@H](C)[C@@H]1NC(=O)[C@@H](CCCN=C(N)N)NC(=O)CNC(=O)CNC(=O)[C@@H](C2CCCCC2)NC(=O)CCSSC[C@H](C(N)=O)NC(=O)[C@@H](CCCN=C(N)N)NC(=O)[C@H](Cc2ccccc2)NC(=O)[C@@H]([C@@H](C)CC)NC(=O)[C@H](CCCN=C(N)N)NC(=O)[C@@H](CCC(=O)O)NC1=O | 430 |
| CC[C@H](C)[C@@H]1NC(=O)[C@@H](CCCN=C(N)N)NC(=O)[C@@H](C)NC(=O)[C@@H](C)NC(=O)[C@@H](C2CCCCC2)NC(=O)[C@H](NC(=O)[C@H](N)CCCN=C(N)N)CSSC[C@H](C(N)=O)NC(=O)[C@@H](CCCN=C(N)N)NC(=O)[C@H](Cc2ccccc2)NC(=O)[C@@H]([C@@H](C)CC)NC(=O)[C@H](CCCN=C(N)N)NC(=O)[C@@H](CC(=O)O)NC1=O | 200 |
| CC[C@H](C)[C@@H]1NC(=O)[C@@H](CCCN=C(N)N)NC(=O)CNC(=O)CNC(=O)[C@@H](C2CCCCC2)NC(=O)[C@H](NC(=O)[C@H](N)CCCN=C(N)N)CSSC[C@H](C(=O)O)NC(=O)[C@@H](CCCN=C(N)N)NC(=O)[C@H](C)NC(=O)[C@@H]([C@@H](C)CC)NC(=O)[C@H](CCCN=C(N)N)NC(=O)[C@@H](CC(=O)O)NC1=O | 280 |
| CC[C@H](C)[C@@H]1NC(=O)[C@@H](CCCN=C(N)N)NC(=O)CNC(=O)CNC(=O)[C@@H](Cc2ccccc2)NC(=O)[C@H](NC(=O)[C@@H](CO)NC(=O)[C@H](N)CO)CSSC[C@H](C(=O)O)NC(=O)[C@@H](CCCN=C(N)N)NC(=O)[C@H](Cc2ccccc2)NC(=O)[C@@H]([C@@H](C)CC)NC(=O)[C@H](CCCN=C(N)N)NC(=O)[C@@H](CC(=O)O)NC1=O | 790 |
| CC[C@H](C)[C@@H]1NC(=O)[C@@H](CCCN=C(N)N)NC(=O)CNC(=O)CNC(=O)[C@@H](C2CCCCC2)NC(=O)[C@H](N)CSSC[C@H](C(N)=O)NC(=O)[C@@H](CCCN=C(N)N)NC(=O)[C@H](Cc2ccccc2)NC(=O)[C@@H]([C@@H](C)CC)NC(=O)[C@H](C)NC(=O)[C@@H](CC(=O)O)NC1=O | 8900 |
